We go through eleven compounds from paper PMC10693969 (Parasites, Hosts and Diseases, 2023).

The test system of data set [1] is A. castellanii (ATCC-30868) trophozoites. Put plainly: In vitro anti-Acanthamoeba activity, A. castellanii trophozoite viability. In kind it is cell-based. The following applies: for IC50: mean±SD of 3 independent experiments; for SI, sensitivity index (CC50 C6 glial cells / IC50 A. castellanii): ratio CC50 C6 glial cells / IC50 A. castellanii; for antiamoebic activity against A. castellanii (in words): in vitro.

The nature of data set [2]: Cytotoxicity against C6 glial cells. Type of data set: cell-based, rat. To be noted: rat, C6 glial cells.
Data set [3] concerns Naegleria fowleri trophozoites (Carter NF69 strain, ATCC 30215). Put plainly: In vitro anti-N. fowleri activity, trophozoite viability. The following applies: for IC50: mean±SD of 3 independent experiments; for SI, sensitivity index (CC50 C6 glial cells / IC50 N. fowleri): ratio CC50 C6 glial cells / IC50 N. fowleri; for antiamoebic activity against N. fowleri (in words): in vitro. In kind it is cell-based.

Data set [4] concerns A. polyphaga (ATCC-30461) trophozoites. The experiment in a line: In vitro anti-Acanthamoeba activity, A. polyphaga trophozoite viability. In kind it is cell-based. The following applies: for IC50: mean±SD of 3 independent experiments; for SI, sensitivity index (CC50 C6 glial cells / IC50 A. polyphaga): ratio CC50 C6 glial cells / IC50 A. polyphaga; for antiamoebic activity against A. polyphaga (in words): in vitro.

Where [5] appears, read: Acanthamoeba castellanii, ATCC30868, 48 h, read-out: A. castellanii (IC50 ±SD, μM), trophozoites, 0–400 μM, 25°C, 48 h.
Where [6] appears, read: read-out: A. castellanii (IC50 ±SD), trophozoites, 0–400 μM, 25°C, 48 h.
[7] abbreviates: Naegleria fowleri, ATCC30215, 48 h, read-out: N. fowleri (IC50 ±SD, μM), trophozoites, 0–400 μM, 37°C, 48 h.
[8] abbreviates: Acanthamoeba polyphaga, ATCC30461, 48 h, read-out: A. polyphaga (IC50 ±SD, μM), trophozoites, 0–400 μM, 25°C, 48 h.
Where [9] appears, read: read-out: A. polyphaga (IC50 ±SD), trophozoites, 0–400 μM, 25°C, 48 h.
Setting [10] is: trophozoites, listed as berberine.
[11] abbreviates: read-out: N. fowleri (IC50 ±SD), trophozoites, 0–400 μM, 37°C, 48 h.

Where “and” joins values, the source holds several entries; their conditions need not be identical. Equal values may be shown once. Read-outs that look alike come from different tables or passages of the source.

Consider `Oc1cc(O)c2c(c1)O[C@H](c1ccc(O)c(O)c1)[C@H](O)C2` [(−)-Epicatechin, (−)-epicatechin], for which the 50% inhibitory concentration (IC50) (as a rule, the midpoint of a concentration-inhibition curve) is < 50 µM in data set [1] (setting [5]); 33.4 ± 0.68 µM in data set [1] (setting [6]); 102.6 ± 0.97 µM in data set [3] (setting [7]); < 50 µM in data set [4] (setting [8]); 25.02 ± 0.14 µM in data set [4] (setting [9]). Also, the “SI, sensitivity index (CC50 C6 glial cells / IC50 A. castellanii)” value was 9.55 in data set [1] and > 8 in data set [1] (listed as (−)-epicatechin). The 50% cytotoxic concentration (CC50) (as a rule, the concentration at which the toxic effect on the cells reaches its halfway point) in data set [2] was determined as 318.6 ± 0.82 µM. Further, the “SI, sensitivity index (CC50 C6 glial cells / IC50 N. fowleri)” value in data set [3] is listed as 3.11. In addition, the “antiamoebic activity against N. fowleri (in words)” value in data set [3] (trophozoites) is reported as “did not show significative anti-N. fowleri activities”. Moreover, the “SI, sensitivity index (CC50 C6 glial cells / IC50 A. polyphaga)” value in data set [4] is 12.73; in data set [4] (listed as (−)-epicatechin), > 8.

As for `C=C1CC/C=C(\C)CC[C@@H]2[C@@H]1CC2(C)C` [(−)-trans-Caryophyllene, (−)-trans-caryophyllene], the concentration for half-maximal inhibition (IC50) worked out at 65.1 ± 1.42 µM in data set [1] (setting [5]), 84.78 ± 0.65 µM in data set [3] (setting [7]) and 44.8 ± 1.41 µM in data set [4] (setting [8]). Moreover, in data set [1], the “SI, sensitivity index (CC50 C6 glial cells / IC50 A. castellanii)” value is on record as 3.39. This compound also registered a CC50 in data set [2] of 220 ± 2.42 µM. Also, the “SI, sensitivity index (CC50 C6 glial cells / IC50 N. fowleri)” value in data set [3] is 2.60. In addition, the “SI, sensitivity index (CC50 C6 glial cells / IC50 A. polyphaga)” value in data set [4] was found to be 4.92.

In the case of `C[C@@H]1O[C@@H](Oc2c(-c3ccc(O)cc3)oc3cc(O)cc(O)c3c2=O)[C@H](O)[C@H](O)[C@H]1O` [Afzelin, afzelin], the 50% inhibitory concentration (IC50) in data set [1] (setting [5]), in data set [3] (setting [7]) and in data set [4] (setting [8]) was > 230 µM in each case. Moreover, the “antiamoebic activity against A. castellanii (in words)” value in data set [1] (trophozoites) is on record as “did not exhibit potential or selective antiamoebic activity”. The half-maximal cytotoxic concentration (CC50) in data set [2] was > 230 µM. The “antiamoebic activity against A. polyphaga (in words)” value in data set [4] (trophozoites) is “did not exhibit potential or selective antiamoebic activity”.

With `CC[C@H]1OC(=O)[C@H](C)[C@@H](O[C@H]2C[C@@](C)(OC)[C@@H](O)[C@H](C)O2)[C@H](C)[C@@H](O[C@@H]2O[C@H](C)C[C@H](N(C)C)[C@H]2O)[C@](C)(O)C[C@@H](C)CN(C)[C@H](C)[C@@H](O)[C@]1(C)O` [Azithromycin, Azithromycin dihydrate, reference compound], the IC50 in data set [1] (setting [5]) was 12.1 ± 0.2 µM; in data set [3] (setting [7]) it was 14.7 ± 1.65 µM; in data set [4] (setting [8]), 4.12 ± 0.11 µM. Besides, in data set [1], the “SI, sensitivity index (CC50 C6 glial cells / IC50 A. castellanii)” value is reported as 7.12. In addition, in data set [2], half-maximal cytotoxicity (CC50) was put at 86.2 ± 0.93 µM. In addition, in data set [3], the “SI, sensitivity index (CC50 C6 glial cells / IC50 N. fowleri)” value stood at 5.88. In addition, the “SI, sensitivity index (CC50 C6 glial cells / IC50 A. polyphaga)” value in data set [4] was 20.93.

Regarding `COc1ccc2cc3[n+](cc2c1OC)CCc1cc2c(cc1-3)OCO2` [Berberine, berberine], the IC50 in data set [1] (setting [5]), in data set [3] (setting [7]) and in data set [4] (setting [8]) was > 260 µM in each case. For the same compound, the “antiamoebic activity against A. castellanii (in words)” value in data set [1] (trophozoites) is “did not affect”; in data set [1] (setting [10]), “did not exhibit potential or selective antiamoebic activity”. In data set [2], this compound gave a CC50 of 159.7 ± 1.23 µM. Also, in data set [3] (trophozoites), the “antiamoebic activity against N. fowleri (in words)” value is “did not affect”. Moreover, the “antiamoebic activity against A. polyphaga (in words)” value in data set [4] (trophozoites) is recorded as “did not affect”; in data set [4] (setting [10]) it was “did not exhibit potential or selective antiamoebic activity”.

For `C=C1C(=O)O[C@@H]2/C=C(\C)CC/C=C(\C)CC[C@@H]12` [Costunolide, costunolide], the 50% inhibitory concentration (IC50) in data set [1] (setting [5]) is < 50 µM; in data set [1] (setting [6]) it was 32 ± 1.14 µM; in data set [3] (setting [7]), 65.56 ± 0.58 µM; in data set [4] (setting [8]) it was < 50 µM; in data set [4] (setting [9]), 35.1 ± 0.74 µM. Besides, the “SI, sensitivity index (CC50 C6 glial cells / IC50 A. castellanii)” value in data set [1] was 5.97. The midpoint of cytotoxicity in data set [2], the CC50, lay at 191.2 ± 1.18 µM. Moreover, the “SI, sensitivity index (CC50 C6 glial cells / IC50 N. fowleri)” value in data set [3] came to 2.92. Further, the “SI, sensitivity index (CC50 C6 glial cells / IC50 A. polyphaga)” value in data set [4] is reported as 5.44.

Regarding `O=c1c(-c2ccc(O)cc2)coc2cc(O)cc(O)c12` [Genistein, genistein], the IC50 in data set [1] (setting [5]) was > 370 µM; in data set [3] (setting [7]) it was 157.4 ± 0.57 µM; in data set [4] (setting [8]), > 370 µM. Also, the “antiamoebic activity against A. castellanii (in words)” value in data set [1] (trophozoites) is recorded as “did not exhibit potential or selective antiamoebic activity”. In addition, half-maximal cytotoxicity in data set [2] (CC50) was put at 104 ± 1.08 µM. In addition, the “SI, sensitivity index (CC50 C6 glial cells / IC50 N. fowleri)” value in data set [3] was 0.66. Further, in data set [4] (trophozoites), the “antiamoebic activity against A. polyphaga (in words)” value is listed as “did not exhibit potential or selective antiamoebic activity”.

With `O=c1c(O)c(-c2ccc(O)cc2)oc2cc(O)cc(O)c12` [Kaempferol, kaempferol], the “SI, sensitivity index (CC50 C6 glial cells / IC50 A. castellanii)” value in data set [1] was 15.43; in data set [1] (listed as kaempferol), > 8. The IC50 in data set [1] (setting [6]) is 21.6 ± 1.28 µM; in data set [1] (read-out: A. castellanii (IC50 ±SD), trophozoites, 0–400 μM, 25°C, 48 h, listed as kaempferol), < 40 µM; in data set [3] (setting [7]), < 30 µM; in data set [3] (setting [11]), 27.8 ± 0.33 µM; in data set [3] (read-out: N. fowleri (IC50 ±SD), trophozoites, 0–400 μM, 37°C, 48 h, listed as kaempferol), < 40 µM; in data set [4] (setting [8]), < 50 µM. For the same compound, the concentration for half-maximal inhibition (IC50) in data set [4] (setting [9]) was 28.6 ± 1.17 µM; in data set [4] (read-out: A. polyphaga (IC50 ±SD), trophozoites, 0–400 μM, 25°C, 48 h, listed as kaempferol), < 40 µM. Also, in data set [2], the midpoint of cytotoxicity, the CC50, lay at 333.8 ± 0.99 µM. The “SI, sensitivity index (CC50 C6 glial cells / IC50 N. fowleri)” value in data set [3] was 12.00; in data set [3] (listed as kaempferol), > 7 and > 8. Also, the results for the “SI, sensitivity index (CC50 C6 glial cells / IC50 A. polyphaga)” value in data set [4] and in data set [4] (listed as kaempferol) were 11.67 and > 8, respectively.

In the case of `O=c1cc(-c2ccc(O)c(O)c2)oc2cc(O)cc(O)c12` [Luteolin, luteolin], the IC50 was > 350 µM in data set [1] (setting [5]), < 30 µM in data set [3] (setting [7]), 27.4 ± 0.61 µM in data set [3] (setting [11]) and 40.2 ± 0.47 µM in data set [4] (setting [8]). The “antiamoebic activity against A. castellanii (in words)” value in data set [1] (trophozoites) is “not effective”. In data set [2], the CC50 was > 350 µM. In data set [4] (trophozoites), the “antiamoebic activity against A. polyphaga (in words)” value is listed as “effective”.

In the case of `CCCCCCCCCCCCCCCCOP(=O)([O-])OCC[N+](C)(C)C` [Miltefosine, miltefosine, reference compound], the 50% inhibitory concentration (IC50) in data set [1] (setting [5]) worked out at 213.2 ± 1.22 µM; in data set [3] (setting [7]), 153.3 ± 1.3 µM; in data set [4] (setting [8]), 227.5 ± 0.36 µM. Moreover, the “SI, sensitivity index (CC50 C6 glial cells / IC50 A. castellanii)” value in data set [1] is given as >1.15. The CC50 in data set [2] was > 245 µM. Also, the “SI, sensitivity index (CC50 C6 glial cells / IC50 N. fowleri)” value in data set [3] was >1.60. Further, the “SI, sensitivity index (CC50 C6 glial cells / IC50 A. polyphaga)” value in data set [4] is listed as >1.08.

`O=c1c(O)c(-c2ccc(O)c(O)c2)oc2cc(O)cc(O)c12` [Quercetin, quercetin]: the results for the IC50 in data set [1] (setting [5]), in data set [3] (setting [7]) and in data set [4] (setting [8]) were > 330 µM, > 330 µM and 320.8 ± 0.33 µM, respectively. In addition, the “antiamoebic activity against A. castellanii (in words)” value in data set [1] (trophozoites) was “did not exhibit potential or selective antiamoebic activity”. In data set [2], the 50% cytotoxic concentration (CC50) is > 330 µM. Moreover, the “SI, sensitivity index (CC50 C6 glial cells / IC50 A. polyphaga)” value in data set [4] was >1.03. Besides, the “antiamoebic activity against A. polyphaga (in words)” value in data set [4] (trophozoites) was “did not exhibit potential or selective antiamoebic activity”.
